Reference: EPA's ToxValDB 9.5 (doi:10.2903/j.efsa.2009.203r)
Converted amounts (≈) assume the structure as drawn.

Assays:
[1] = system: Canidae; details: oral, Dog Other, histopathology: nonneoplastic
[2] = system: Colinus virginianus; details: acute, oral, mortality
[3] = system: Anas platyrhynchos; details: short-term; oral; feed; mortality
[4] = system: Rattus norvegicus; details: for LD50: acute, mortality
[5] = system: Oncorhynchus mykiss; details: acute; duration: 96 hours; mortality

Structure (SMILES) | NOAEL ([1]; chronic, duration: 1 years, capsule) [mg/kg-day] | LC50 ([2]; diet) [mg/kg-day] | LD50 [2] [mg/kg-day] | LC50 [3] [mg/kg-day] | LD50 ([4]; oral) [mg/kg-day] | NOAEL ([4]; chronic, duration: 2 years, histopathology: nonneoplastic) [mg/kg-day] | NOAEL ([4]; developmental, oral, gavage, development) [mg/kg-day] | NOAEL ([1]; subchronic, duration: 90 days, gavage) [mg/kg-day] | NOAEL ([4]; chronic, duration: 104 weeks, oral, drinking water, histopathology: nonneoplastic) [mg/kg-day] | NOAEL ([4]; reproduction developmental) [mg/kg-day] | LC50 [5] [µg/mL]
CNC(=S)[S-].[Na+] [Metam-sodium] | 0.1 | > 448 | 211 | > 324 | 896 | 1.5 | 5 | – | – | – | –
CN=C=S [Methyl isothiocyanate] | – | – | – | – | 147 | – | – | 0.4 | 0.44 | 3 | 0.0531 (≈ 0.726 µM)
